Measurements published in ChEMBL document CHEMBL4152195, “Lipid reducing activity and toxicity profiles of a library of polyphenol derivatives” (Eur J Med Chem, 2018).
The source made the active and inactive calls. The rule behind the calls is not given here.

Assays:
Danio rerio [1] = organism: Danio rerio; test: Lipid lowering activity in zebrafish embryos by Nile red fat metabolism assay; type: functional, organism-based
Danio rerio [2] = organism: Danio rerio; test: Lipid lowering activity in zebrafish embryos at 5 uM by Nile red fat metabolism assay; type: functional, organism-based
Danio rerio [3] = organism: Danio rerio; test: Lipid lowering activity in zebrafish embryos 50 uM by Nile red fat metabolism assay; type: functional, organism-based
Danio rerio [4] = organism: Danio rerio; test: Downregulation of fasn mRNA expression in zebra fish larvae at lipid lowering activity EC50 after 48 hrs by RT-PCR analysis; type: functional
Danio rerio [5] = organism: Danio rerio; test: Toxicity in zebra fish larvae at 5 uM after 48 hrs; type: organism-based; details: zebrafish, in vivo
3T3-L1 [6] = test: Cytotoxicity against mouse 3T3L1 cells at 50 uM after 24 hrs by sulforhodamine B assay; type: cell-based; details: 3t3-l1, 24 h
3T3-L1 [7] = test: Cytotoxicity against mouse 3T3L1 cells at 50 uM after 48 hrs by sulforhodamine B assay; type: cell-based; details: 3t3-l1, 48 h
Danio rerio [8] = organism: Danio rerio; test: Toxicity in zebra fish larvae assessed as induction of malformation at 50 uM after 24 to 48 hrs; type: organism-based; details: zebrafish, in vivo

Row | Compound | EC50 (Danio rerio [1]) [nM] | Activity (Danio rerio [2]) | Activity (Danio rerio [3]) | Activity (Danio rerio [4]) | Activity (Danio rerio [5]) [%] | Activity (3T3-L1 [6]) [%] | Activity (3T3-L1 [7]) [%] | Activity (Danio rerio [8]) | fold change (FC) (Danio rerio [4])
1 | Oc1ccc(/C=C/c2cc(O)cc(O)c2)cc1 [RESVERATROL] | 600 | Active | Active |  |  |  |  |  | 
2 | CCCOc1ccc(NCC(C)C)c2c(=O)c3ccccc3sc12 | 70 | Active |  | inactive | 0 to 25 | 0 to 25 | 0 to 25 |  | 
3 | O=c1c2cc(O)ccc2oc2cccc(O)c12 |  |  |  |  | 0 to 25 | 0 to 25 | 0 to 25 | Toxic | 
4 | O=c1c2ccccc2oc2ccc(O)cc12 | 760 | Active |  |  | 0 to 25 | 0 to 25 | 0 to 25 |  | 
5 | O=c1c2ccccc2oc2cc(O)c(O)cc12 | 980 | Active |  |  | 0 to 25 | 0 to 25 | 0 to 25 |  | 
6 | CC1(C)C=Cc2cc(O)c3c(=O)c4ccccc4oc3c2O1 | 290 | Active |  |  | 0 to 25 | 0 to 25 | 0 to 25 |  | 
7 | COc1cc2oc3ccccc3c(=O)c2cc1OC | 280 | Active |  |  | 0 to 25 | 0 to 25 | 0 to 25 |  | 2
8 | O=c1c2ccccc2oc2ccc(O)c(O)c12 | 130 | Active |  | inactive | 0 to 25 | 0 to 25 | 0 to 25 |  | 
9 | O=c1c2ccccc2oc2cccc(O)c12 | 620 | Active |  |  | 0 to 25 | 0 to 25 | 0 to 25 |  | 
10 | CC1(C)C=Cc2cc3c(=O)c4ccccc4oc3c(O)c2O1 | 1440 | Active |  |  | 0 to 25 | 0 to 25 | 0 to 25 |  | 
11 | COc1ccc2oc3ccccc3c(=O)c2c1OC | 620 | Active |  |  | 0 to 25 | 0 to 25 | 0 to 25 |  | 
12 | COc1cc2c(c3oc4ccccc4c(=O)c13)OC(C)(C)CC2 | 730 | Active |  |  | 0 to 25 | 0 to 25 | 0 to 25 |  | 
